Data taken from paper PMC6927504, “Screening of House Dust from Chinese Homes for Chemicals with Liver X Receptors Binding Activities and Characterization of Atherosclerotic Activity Using an in Vitro Macrophage Cell Line and ApoE^−/− Mice” (Environmental Health Perspectives, 2019).

Legend:
ApoE−/− mice = test: Atherosclerotic lesion analysis (Oil Red O) in ApoE−/− mouse model; assay type: in vivo; details: 13 weeks, p<0.01; for Area of the atherosclerotic lesion (en face lipid staining), higher than control: high-fat diet
Text: All experiments related to animals were approved by the institutional animal care and use committee of Peking University and followed the guidelines for animal experiments of the university as well as for experimental animals in China. The biological effect size of the animal experiments was based on the previous paper ([Negro Silva et al. 2017]). C57BL/6 (12 weeks old) and ApoE^−/− mice (12 weeks old) were obtained from the Beijing Vital River Laboratory Animal Technology Company. Mice used in the experiments were acclimated to the housing unit 2 weeks before they were used for experiments, and they were randomly assigned to control or TPHP treatment groups. Five animals were housed to a cage, and mice were acclimatized to the controlled environment (temperature: 22±2°C; relative humidity: 40–60%; artificial lighting: 12 h:12 h light/dark). Mice received diet and drinking water ad libitum. Body weight (BW) was measured every week during the dosing period. Forty-five C57BL/6 mice and 27 ApoE^−/− mice were used in this study. Animal protocol 1: Male C57BL/6 mice (five mice per group) were fed a basic diet (Laboratory Animal Center of the Academy of Military Medical Sciences, China). On Day 0, mice were stimulated with paraffin oil by intraperitoneal injection. From Day 1 to Day 7, mice were exposed to corn oil (control) or TPHP (dissolved in corn oil) at 40 or 200mg/kg BW by daily oral gavage. The volume of the corn oil or TPHP in corn oil administered was 5mL/kg BW. On Day 8, after the mice were anesthetized by sodium pentobarbital via intramuscular injection, peritoneal macrophages were harvested from peritoneal lavage with 4mL pre-warmed DMEM-F12 (containing 10% FBS) using a 25-gauge needle; 5–10 min later, 3–3.5mL peritoneal fluid was collected, and the cells were isolated by centrifuge at 1,000 rpm for 5 min. […] Considering that this study assessed the effects of short-term exposure to TPHP, whereas humans are exposed to TPHP over a lifelong period, the present study used exposure doses that were higher than that of human exposure from house dust. […]

human LXRβ = target: T1, human LXRβ (Homo sapiens, UniProt P55055); test: Yeast two-hybrid assay (LXRβ LBD with coactivator TIF2, β-galactosidase readout)
T1 sequence (P55055 219-460): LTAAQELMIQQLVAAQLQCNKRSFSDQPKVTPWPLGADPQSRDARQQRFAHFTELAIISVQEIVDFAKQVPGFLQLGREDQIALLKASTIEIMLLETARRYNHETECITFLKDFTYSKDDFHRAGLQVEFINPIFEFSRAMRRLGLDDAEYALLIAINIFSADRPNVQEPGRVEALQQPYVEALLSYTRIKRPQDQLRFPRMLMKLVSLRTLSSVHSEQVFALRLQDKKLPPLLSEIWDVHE

RAW264.7 macrophages = test: Foam cell formation (ox-LDL, BODIPY 493/503 staining) in RAW264.7 macrophages; assay type: cell-based
Protocol: RAW264.7 cells were obtained from the National Infrastructure of Cell Line Resource of Beijing, China, and the cells used for the experiment were cultured for at least three passages. Dulbecco’s Modified Eagle’s Medium (DMEM)-F12 medium containing 10% fetal bovine serum (FBS) was employed to culture the RAW264.7 cells. RAW264.7 cells were incubated at 37°C with 5% carbon dioxide. The RAW264.7 cells were plated at 2.5×10^5 cells/well (6-well plates), 6.0×10^4 cells/well (24-well plates), and 10^4 cells/well (96-well plates). The RAW264.7 cells were plated and grown overnight; then the medium was removed and fresh DMEM-F12 contained with 0.1% DMSO (control; n=3 ) or TPHP at the concentrations of 1–20,000 nM ( n=3 per group) was added. […] Then the cells were used for the quantitative reverse transcription (qRT)-PCR, cellular cholesterol efflux assay, and foam cell formation experiment.
RAW264.7 cells or mouse peritoneal macrophages were plated in 24-well plates at 6.0×10^4 cells/well and grown overnight. Then the medium was removed and fresh DMEM-F12 containing 10% FBS, 20μg/mL oxidized low-density lipoprotein (ox-LDL), and 0.1% DMSO (control; n=3 ) or TPHP at the concentration of 1–20,000 nM ( n=3 per group) was added. The cells were washed with PBS, followed by fixing in 4% paraformaldehyde for 30 min and staining with boron-dipyrromethene (BODIPY) 493/503 ( 20μg/mL ) and 4′,6-diamidino-2-phenylindole (DAPI; 100 ng/mL ) for 10 min. Foam cell formation was analyzed by high-content microscopy using ImageXpress® Micro XL (Molecular Devices). From each well, 25 image fields were scanned, and MetaXpress® (Molecular Devices) was used to quantify compartmentalized changes in the fluorescence of each cell.

O=P(Oc1ccccc1)(Oc1ccccc1)Oc1ccccc1 [TPHP, triphenyl phosphate]
Atherosclerotic lesion area around the aortic root versus control (ApoE−/− mice; 10 and 40 mg/kg BW): significantly higher lesion area | Area of the atherosclerotic lesion (en face lipid staining), higher than control (ApoE−/− mice; 10 mg/kg BW oral gavage): 41% | Area of the atherosclerotic lesion (en face lipid staining), higher than control (ApoE−/− mice; 40 mg/kg BW oral gavage): 83% | Contribution to the LXRβ-antagonist activity of SRM2585 (human LXRβ; dust standard reference material SRM2585): 12.68% | Share of the LXRβ-antagonist activity of indoor dust explained by the chemical (human LXRβ; range over indoor dust samples (Table S4)): 0.37–32.60% | Intensity of foam cell staining relative to control (RAW264.7 macrophages; 100 nM, p<0.01): 1.64±0.02 fold | Intensity of foam cell staining relative to control (RAW264.7 macrophages; 1,000 nM, p<0.01): 1.67±0.14 fold | Intensity of foam cell staining relative to control (RAW264.7 macrophages; 5,000 nM, p<0.05): 1.78±0.31 fold | Intensity of foam cell staining relative to control (RAW264.7 macrophages; 10,000 nM, p<0.05): 2.08±0.45 fold | Intensity of foam cell staining relative to control (RAW264.7 macrophages; 20,000 nM, p<0.05): 2.09±0.52 fold
